In patent EP3345917A1, “ANTIPROTOZOAL COMPOUNDS” (Bacoba AG, priority 2017, dated 2018):
pIC50: −log10 of the molar value. Non-standard residues stand in square brackets, D forms with d. Residues, ends and D or L forms follow the SMILES beside them. *: point of attachment. Hexenoyl(2E,4S-Me) = CC[C@H](C)/C=C/C(=O)*; Leu(3R-OH) = CC(C)[C@@H](O)[C@H](N)C(=O)O; NH((S)CH(Me)CH2NMe2) = C[C@@H](CN(C)C)N*; NH(2-morpholinoethyl) = C(CN1CCOCC1)N*; Cyclopentanecarbonyl = O=C(C1CCCC1)*; Gly(octyl) = CCCCCCCC[C@H](N)C(=O)O; NHCH2CH2NMe2 = CN(C)CCN*; Hexanoyl = CCCCCC(=O)*; Aib = CC(C)(N)C(=O)O; βAla = NCCC(=O)O

Tests used:
[1] = system: intracellular Leishmania donovani (L.don. InMac); assay: Intracellular Leishmania donovani assay (L.don. InMac); format: cell-based; conditions: In vitro inhibition
Excerpt: (§1) Tests were done in triplicate.

[2] = Cytotoxicity assay on L6-cells (Alamar Blue); conditions: rat, Cytotox L6, Cytotoxicity against rat myoblast cells (L6)
Experimental: Tests were done in triplicate. IC50 values against the parasites as well as cytotoxic effects against rat myoblast (L6-cells) were determined by serial dilution and repeated twice.
After 68 h of incubation under humidified 5% CO2 atmosphere, 10 µl of the Alamar blue marker was added to all wells. The plates were incubated for an additional 2 h. […] The IC50S were calculated by Softmax Pro software (Molecular Devices Cooperation, Sunnyvale, CA). […] Cytotoxicity was measured against rat myoblast cells (Cytotox L6).

[3] = system: Trypanosoma brucei rhodesiense (STIB 900 strain); assay: Alamar Blue assay against Trypanosoma brucei rhodesiense grown in axenic medium; format: cell-based; conditions: In vitro inhibition, read-out: T.b.rhod.
In short: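 T. b. rhodesiense STIB 900 cultured in axenic medium and exposed to samples in an Alamar Blue viability assay, run in triplicate. IC50 calculated from the readout; melarsoprol served as reference drug.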

Plasmodium falciparum = assay: 3H-hypoxanthine incorporation assay against Plasmodium falciparum; format: cell-based; conditions: In vitro inhibition, read-out: P.falc NF5
Experimental: as §1
IC50 values were calculated by linear interpolation.

[4] = system: Trypanosoma cruzi trypomastigote forms (Tulahuen strain); assay: Intracellular Trypanosoma cruzi assay in L6-cells, beta-galactosidase/CPRG readout; format: cell-based; conditions: In vitro inhibition, read-out: T.cruzi.
In short: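 L6 rat myoblasts infected with Tulahuen C2C4 LacZ T. cruzi; after incubation, CPRG/Nonidet substrate added and colour developed 2–6 h. Absorbance at 540 nm; IC50 calculated; triplicate tests.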

[5] = system: Axenically grown Leishmania donovani amastigotes (strain MHOM/ET/67/L82); assay: Axenic Leishmania donovani amastigote resazurin assay; format: cell-based; conditions: In vitro inhibition, read-out: L.don. ax
In short: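 Strain MHOM/ET/67/L82 amastigotes grown axenically and tested in triplicate by resazurin assay. Plates developed 2-4 hours, fluorescence read at 536 nm excitation/588 nm emission and expressed as percentage of negative control.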

SMILES: CCCCCCCC[C@H](NC(=O)[C@@H]1CCCN1C(=O)/C=C/[C@@H](C)CC)C(=O)N[C@@H](CC(C)C)C(=O)NC(C)(C)C(=O)N[C@@H](CC(C)C)C(=O)N[C@@H](CC(C)C)C(=O)NC(C)(C)C(=O)NC(C)(C)C(=O)NCCC(=O)N[C@@H](C)CN(C)C [Compound 5562, (2S)-N-[(1S)-1-[(1-{[(1S)-1-{[(1S)-1-{[1-({1-[(2-{[(2S)-1-(dimethylamino)propan-2-yl]carbamoyl}ethyl)carbamoyl]-1-methylethyl}carbamoyl)-1-methylethyl]carbamoyl}-3-methylbutyl]carbamoyl}-3-methylbutyl]carbamoyl}-1-methylethyl)carbamoyl]-3-methylbutyl]-2-{[(2S)-1-[(2E,4S)-4-methylhex-2-enoyl]pyrrolidin-2-yl]formamido}decanamide] ({Hexenoyl(2E,4S-Me)}-P[Gly(octyl)]L[Aib]LL[Aib][Aib][βAla]-{NH((S)CH(Me)CH2NMe2)})
- pIC50 [1]: 7.65
- IC50 at 70 h [2]: 459 nM
- pIC50 [3]: 9.30
- pIC50 (Plasmodium falciparum): 9.52
- pIC50 [4]: 7.39
- pIC50 [5]: 8.89

SMILES: CCCCCCCC[C@H](NC(=O)[C@@H]1CCCN1C(=O)/C=C/[C@@H](C)CC)C(=O)N[C@H](C(=O)NC(C)(C)C(=O)N[C@@H](CC(C)C)C(=O)N[C@@H](CC(C)C)C(=O)NC(C)(C)C(=O)NC(C)(C)C(=O)NCCC(=O)NCCN1CCOCC1)[C@H](O)C(C)C [Compound 5569, (2S)-N-[(1S,2R)-2-hydroxy-3-methyl-1-[(1-methyl-1-{[(1S)-3-methyl-1-{[(1S)-3-methyl-1-{[1-methyl-1-({1-methyl-1-[(2-{[2-(morpholin-4-yl)ethyl]carbamoyl}ethyl)carbamoyl]ethyl}carbamoyl)ethyl]carbamoyl}butyl]carbamoyl}butyl]carbamoyl}ethyl)carbamoyl]butyl]-2-{[(2S)-1-[(2E,4S)-4-methylhex-2-enoyl]pyrrolidin-2-yl]formamido}decanamide] ({Hexenoyl(2E,4S-Me)}-P[Gly(octyl)][Leu(3R-OH)][Aib]LL[Aib][Aib][βAla]-{NH(2-morpholinoethyl)})
- pIC50 [1]: 6.97
- IC50 at 70 h [2]: 2420 nM
- pIC50 [3]: 8.77
- pIC50 (Plasmodium falciparum): 7.75
- pIC50 [4]: 6.84
- pIC50 [5]: 8.42

SMILES: CCCCCCCC[C@H](NC(=O)/C=C/[C@@H](C)CC)C(=O)N[C@H](C(=O)NC(C)(C)C(=O)N[C@@H](CC(C)C)C(=O)N[C@@H](CC(C)C)C(=O)NC(C)(C)C(=O)NC(C)(C)C(=O)NCCC(=O)N[C@@H](C)CN(C)C)[C@H](O)C(C)C [Compound 5586, (2S)-N-[(1S,2R)-1-[(1-{[(1S)-1-{[(1S)-1-{[1-({1-[(2-{[(2S)-1-(dimethylamino)propan-2-yl]carbamoyl}ethyl)carbamoyl]-1-methylethyl}carbamoyl)-1-methylethyl]carbamoyl}-3-methylbutyl]carbamoyl}-3-methylbutyl]carbamoyl}-1-methylethyl)carbamoyl]-2-hydroxy-3-methylbutyl]-2-[(2E,4S)-4-methylhex-2-enamido]decanamide] ({Hexenoyl(2E,4S-Me)}-[Gly(octyl)][Leu(3R-OH)][Aib]LL[Aib][Aib][βAla]-{NH((S)CH(Me)CH2NMe2)})
- pIC50 [1]: 6.98
- IC50 at 70 h [2]: 1150 nM
- pIC50 [3]: 8.18
- pIC50 (Plasmodium falciparum): 7.73
- pIC50 [4]: 6.97
- pIC50 [5]: 8.33

SMILES: CCCCCCCC[C@H](NC(=O)[C@@H]1CCCN1C(C)=O)C(=O)N[C@H](C(=O)NC(C)(C)C(=O)N[C@@H](CC(C)C)C(=O)N[C@@H](CC(C)C)C(=O)NC(C)(C)C(=O)NC(C)(C)C(=O)NCCC(=O)N[C@@H](C)CN(C)C)[C@H](O)C(C)C [Compound 5588, (2S)-2-{[(2S)-1-acetylpyrrolidin-2-yl]formamido}-N-[(1S,2R)-1-[(1-{[(1S)-1-{[(1S)-1-{[1-({1-[(2-{[(2S)-1-(dimethylamino)propan-2-yl]carbamoyl}ethyl)carbamoyl]-1-methylethyl}carbamoyl)-1-methylethyl]carbamoyl}-3-methylbutyl]carbamoyl}-3-methylbutyl]carbamoyl}-1-methylethyl)carbamoyl]-2-hydroxy-3-methylbutyl]decanamide] (Ac-P[Gly(octyl)][Leu(3R-OH)][Aib]LL[Aib][Aib][βAla]-{NH((S)CH(Me)CH2NMe2)})
- pIC50 [1]: 6.33
- IC50 at 70 h [2]: 3540 nM
- pIC50 [3]: 8.22
- pIC50 (Plasmodium falciparum): 8.02
- pIC50 [4]: 5.63
- pIC50 [5]: 8.34

SMILES: CCCCCCCC[C@H](NC(=O)[C@@H]1CCCN1C(=O)CCCCC)C(=O)N[C@H](C(=O)NC(C)(C)C(=O)N[C@@H](CC(C)C)C(=O)N[C@@H](CC(C)C)C(=O)NC(C)(C)C(=O)NC(C)(C)C(=O)NCCC(=O)N[C@@H](C)CN(C)C)[C@@H](C)O [Compound 5604, (2S)-N-[(1S,2R)-1-[(1-{[(1S)-1-{[(1S)-1-{[1-({1-[(2-{[(2S)-1-(dimethylamino)propan-2-yl]carbamoyl}ethyl)carbamoyl]-1-methylethyl}carbamoyl)-1-methylethyl]carbamoyl}-3-methylbutyl]carbamoyl}-3-methylbutyl]carbamoyl}-1-methylethyl)carbamoyl]-2-hydroxypropyl]-2-{[(2S)-1-hexanoylpyrrolidin-2-yl]formamido}decanamide] (Hexanoyl-P[Gly(octyl)]T[Aib]LL[Aib][Aib][βAla]-{NH((S)CH(Me)CH2NMe2)})
- pIC50 [1]: 6.64
- IC50 at 70 h [2]: 1290 nM
- pIC50 [3]: 9.10
- pIC50 (Plasmodium falciparum): 8.44
- pIC50 [4]: 6.37
- pIC50 [5]: 8.40

SMILES: CCCCCCCC[C@H](NC(=O)[C@@H]1CCCN1C(=O)CCCCC)C(=O)N[C@@H](CC(C)C)C(=O)NC(C)(C)C(=O)N[C@@H](CC(C)C)C(=O)N[C@@H](CC(C)C)C(=O)NC(C)(C)C(=O)NC(C)(C)C(=O)NCCC(=O)N[C@@H](C)CN(C)C [Compound 5632, (2S)-N-[(1S)-1-[(1-{[(1S)-1-{[(1S)-1-{[1-({1-[(2-{[(2S)-1-(dimethylamino)propan-2-yl]carbamoyl}ethyl)carbamoyl]-1-methylethyl}carbamoyl)-1-methylethyl]carbamoyl}-3-methylbutyl]carbamoyl}-3-methylbutyl]carbamoyl}-1-methylethyl)carbamoyl]-3-methylbutyl]-2-{[(2S)-1-hexanoylpyrrolidin-2-yl]formamido}decanamide] (Hexanoyl-P[Gly(octyl)]L[Aib]LL[Aib][Aib][βAla]-{NH((S)CH(Me)CH2NMe2)})
- pIC50 [1]: 7.28
- IC50 at 70 h [2]: 162 nM
- pIC50 [3]: 9.40
- pIC50 (Plasmodium falciparum): 10.00
- pIC50 [4]: 7.99
- pIC50 [5]: 8.89

SMILES: CCCCCCCC[C@H](NC(=O)[C@@H]1CCCN1C(C)=O)C(=O)N[C@@H](CC(C)C)C(=O)NC(C)(C)C(=O)N[C@@H](CC(C)C)C(=O)N[C@@H](CC(C)C)C(=O)NC(C)(C)C(=O)NC(C)(C)C(=O)NCCC(=O)N[C@@H](C)CN(C)C [Compound 5638, (2S)-2-{[(2S)-1-acetylpyrrolidin-2-yl]formamido}-N-[(1S)-1-[(1-{[(1S)-1-{[(1S)-1-{[1-({1-[(2-{[(2S)-1-(dimethylamino)propan-2-yl]carbamoyl}ethyl)carbamoyl]-1-methylethyl}carbamoyl)-1-methylethyl]carbamoyl}-3-methylbutyl]carbamoyl}-3-methylbutyl]carbamoyl}-1-methylethyl)carbamoyl]-3-methylbutyl]decanamide] (Ac-P[Gly(octyl)]L[Aib]LL[Aib][Aib][βAla]-{NH((S)CH(Me)CH2NMe2)})
- pIC50 [1]: 6.65
- IC50 at 70 h [2]: 634 nM
- pIC50 [3]: 9.40
- pIC50 (Plasmodium falciparum): 9.22
- pIC50 [4]: 7.01
- pIC50 [5]: 8.15

SMILES: CCCCCCCC[C@H](NC(=O)C1CCCC1)C(=O)N[C@H](C(=O)NC(C)(C)C(=O)N[C@@H](CC(C)C)C(=O)N[C@@H](CC(C)C)C(=O)NC(C)(C)C(=O)NC(C)(C)C(=O)NCCC(=O)N[C@@H](C)CN(C)C)[C@@H](C)O [Compound 5641, (2S)-2-(cyclopentylformamido)-N-[(1S,2R)-1-[(1-{[(1S)-1-{[(1S)-1-{[1-({1-[(2-{[(2S)-1-(dimethylamino)propan-2-yl]carbamoyl}ethyl)carbamoyl]-1-methylethyl}carbamoyl)-1-methylethyl]carbamoyl}-3-methylbutyl]carbamoyl}-3-methylbutyl]carbamoyl}-1-methylethyl)carbamoyl]-2-hydroxypropyl]decanamide] (Cyclopentanecarbonyl-[Gly(octyl)]T[Aib]LL[Aib][Aib][βAla]-{NH((S)CH(Me)CH2NMe2)})
- pIC50 [1]: 6.06
- IC50 at 70 h [2]: 1670 nM
- pIC50 [3]: 8.41
- pIC50 (Plasmodium falciparum): 7.14
- pIC50 [4]: 5.85
- pIC50 [5]: 8.09

SMILES: CCCCCCCC[C@H](NC(=O)[C@@H]1CCCN1C(=O)CCCCC)C(=O)N[C@@H](CC(C)C)C(=O)NC(C)(C)C(=O)N[C@@H](CC(C)C)C(=O)N[C@@H](CC(C)C)C(=O)NC(C)(C)C(=O)NC(C)(C)C(=O)NCCC(=O)NCCN(C)C [Compound 5643, (2S)-N-[(1S)-1-[(1-{[(1S)-1-{[(1S)-1-{[1-({1-[(2-{[2-(dimethylamino)ethyl]carbamoyl}ethyl)carbamoyl]-1-methylethyl}carbamoyl)-1-methylethyl]carbamoyl}-3-methylbutyl]carbamoyl}-3-methylbutyl]carbamoyl}-1-methylethyl)carbamoyl]-3-methylbutyl]-2-{[(2S)-1-hexanoylpyrrolidin-2-yl]formamido}decanamide] (Hexanoyl-P[Gly(octyl)]L[Aib]LL[Aib][Aib][βAla]-NHCH2CH2NMe2)
- pIC50 [1]: 6.97
- IC50 at 70 h [2]: 862 nM
- pIC50 [3]: 8.31
- pIC50 (Plasmodium falciparum): 8.52
- pIC50 [4]: 7.05
- pIC50 [5]: 8.44
